{"source": "patent US6958360B2", "about": "“Attractant pheromone for the Colorado potato beetle” (The United States of America as represented by the …, priority 2001, dated 2005)", "tested_on": "Colorado potato beetle (CPB)", "experiment": "Open Y-track olfactometer laboratory behavioral bioassay, pheromone and plant volatile blends", "format": "in vivo, Leptinotarsa decemlineata", "method": "Insects: All life stages were reared on potted potato plants kept in screened cages inside incubators set for 16L:8D, 25° C. during photophase, 23° C. during scotophase, and 80% R.H. Upon emergence adult beetles were kept individually in plastic cups with perforated plastic snap-on lids, and provided with clean pieces of paper toweling and potato foliage daily.\nBioassay apparatus and protocol: Stock solutions of test compounds, e.g. (S)-CPB I, and individual plant volatiles 2-phenylethanol, nonanal and (±)-linalool, were prepared at 10 μg/μl in hexane. Serial dilutions were made to obtain a test solution of 0.1 μg/μl. Each bioassay treatment of CPB I used a 10 μl aliquot of test solution, or a total of 1 μg of neat material. A […] stock solution of a 3-component blend of selected potato volatiles, (Z)-3-hexenyl acetate, linalool, and methyl salicylate, was prepared as follows: 8.3 μl of each was added to 975 μl of mineral oil, creating a solution of 25 μg of blend components/μl. This stock solution was diluted to obtain a solution of 2.5 μg of blend components/μl. Each bioassay treatment of blend used a 20 μl aliquot of test solution, or a total of 50 μg (16.67 μg/component) of the components.\nPrior to testing at age 7-14 days, unmated insects were held individually in 5.5 oz. cups, provided with fresh potato foliage on a continuous basis, and maintained under incubator conditions of 16L:8D, 80-90% R.H., and “day” and “night” temperatures of 25° C. and 23° C., respectively. On the day of testing, insects were transferred to smaller 1 oz. cups and held for 1-3 hrs with moist filter paper but no foliage, then held in darkness for an additional 1-2 hrs.\nIndividual chemicals and chemical blends were tested for activity in an open Y-track olfactometer modified after Visser and Piron (1998) and described in detail by Dickens (1999; 2000; and Dickens, J. C., et al., Breaking a paradigm: male-produced aggregation pheromone for Colorado potato beetle. Journal of Experimental Biology, 205: 1925-1933 (2002)). In brief, odorous stimuli emanating from synthetic blends on filter paper discs (2.5 cm dia.; Whatman™ #1 filter paper) in 500 ml Ehrlenmeyer flasks were delivered to either side of the device. Test odorants were pipetted onto 3-cm diam. filter paper disks, which were then transferred, using long forceps, into the Erlenmeyer flasks used in the assay. If only a single test solution were being used per treatment, it was placed in the center of the filter paper; if 2 test solutions were being used per treatment, the mineral oil solution was placed in the center, and the hexane solution was spotted around the edge of the filter paper disk. Treatments were replaced after 30 minutes of testing in order to minimize variation in odor concentrations. The location of the chemical blend was switched from one side of the bioassay apparatus to the other side midway through each run in order to avoid bias not associated with the experimental treatment. Hydrocarbon free air that was humidified by passing through distilled water carried the odor molecules to either arm of the bioassay apparatus. Airflow was regulated to 1 l/min by flow meters. Experiments were conducted in a darkened room at 22° C. in which the only source of light was that associated with the bioassay device. For all bioassays at least 40 adults (20 males and 20 females) were tested. Orientation was scored as soon as the test insect had moved completely from the horizontal to one of the 45° angle extension arms of the bioassay device. Following each test, the bioassay device was cleaned with acetone to remove contamination left by the insect.\nStatistical analysis: Laboratory bioassays were assessed for significant differences by the hypothesis on binomial proportions based on the standard normal approximation (Brase and Brase, 1983).", "note": "“Also recorded” adds a separate entry of the source. Marks after values point to notes of the source that are not given here."}
{"molecule": "CC(C)=CCC[C@](C)(O)C(=O)CO", "note": "[(S)-CPB I, (S)-3,7-dimethyl-2-oxo-oct-6-ene-1,3-diol]", "values": [{"measurement": "Female % to A.", "setting": "B = Control (solvent)", "value": 90, "unit": "%**"}, {"measurement": "Male % to A.", "setting": "B = Control (solvent)", "value": 90, "unit": "%**"}, {"measurement": "Total % to A.", "setting": "B = Control (solvent)", "value": 90, "unit": "%**"}, {"measurement": "Female % to A.", "setting": "B = Plant blend", "value": 50, "unit": "%"}, {"measurement": "Male % to A.", "setting": "B = Plant blend", "value": 50, "unit": "%"}, {"measurement": "Total % to A.", "setting": "B = Plant blend", "value": 50, "unit": "%"}, {"measurement": "attraction / preference (in words)", "setting": "comparator as in the treatment pair of Table 2", "value": "attracted both male and female beetles; also recorded: no preference was shown for either attractant"}]}
